# Laboratory results: ChEMBL document CHEMBL5385882, “Rational design and appraisal of selective Cdc2-Like kinase 1 (Clk1) inhibitors as novel autophagy inducers for the treatment of acute liver injury (ALI)” (Eur J Med Chem, 2023)
# Active and inactive are the calls of the source. The calls are words filed in the database; no cut-off is given here.
# How the values were obtained:
# [1] = biological target: T1, Dual specificity protein kinase CLK1 (Homo sapiens, UniProt P49759); assay: Inhibition of human 130-end recombinant CLK1 assessed as remaining activity using ERMRPRKRQGSVR as substrate at 100 nM by [gamma-32P]ATP binding based scintillation counting based analysis relative to control
# Target sequence in this assay (P49759 whole entry, looked up): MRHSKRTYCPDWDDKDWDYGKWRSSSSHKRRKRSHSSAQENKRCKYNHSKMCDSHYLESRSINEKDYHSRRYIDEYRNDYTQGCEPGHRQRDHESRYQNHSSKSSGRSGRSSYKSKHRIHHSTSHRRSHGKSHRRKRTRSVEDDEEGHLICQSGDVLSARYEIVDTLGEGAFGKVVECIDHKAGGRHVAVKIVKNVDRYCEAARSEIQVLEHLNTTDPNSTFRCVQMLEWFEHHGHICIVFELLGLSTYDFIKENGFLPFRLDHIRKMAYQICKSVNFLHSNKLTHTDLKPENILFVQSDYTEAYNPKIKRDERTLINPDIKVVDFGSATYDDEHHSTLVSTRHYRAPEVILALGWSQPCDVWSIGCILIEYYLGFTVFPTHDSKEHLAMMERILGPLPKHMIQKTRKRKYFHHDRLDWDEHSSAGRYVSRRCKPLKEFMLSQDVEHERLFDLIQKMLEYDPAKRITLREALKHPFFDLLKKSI
# [2] = biological target: T1, Dual specificity protein kinase CLK1; assay: Inhibition of human 130-end recombinant CLK1 assessed as remaining activity using ERMRPRKRQGSVR as substrate by [gamma-32P]ATP binding based scintillation counting based analysis
# Target sequence in this assay (P49759 whole entry): as the sequence (P49759 whole entry, looked up) above
# [3] = biological target: T2, Dual specificity tyrosine-phosphorylation-regulated kinase 1A (Homo sapiens, UniProt Q13627); assay: Inhibition of human full length recombinant DYRK1A assessed as remaining activity using RRRFRPASPLRGPP as substrate by [gamma-32P]ATP binding based scintillation counting based analysis
# Homo sapiens = species on record: Homo sapiens; assay: Selectivity index, ratio of IC50 for inhibition of human full length recombinant DYRK1A to IC50 for inhibition of human 130-end recombinant CLK1
# [4] = biological target: T2, Dual specificity tyrosine-phosphorylation-regulated kinase 1A; assay: Inhibition of human full length recombinant DYRK1A assessed as remaining activity using RRRFRPASPLRGPP as substrate at 100 nM by [gamma-32P]ATP binding based scintillation counting based analysis relative to control
# [5] = Metabolic stability in human liver microsomes assessed as clearance at 10 uM incubated for 5 mins in the presence of NADPH-generating system by LC-MS/MS analysis; assay type: ADME, Microsome
# [6] = Metabolic stability in human liver microsomes assessed as half life at 10 uM incubated for 5 mins in the presence of NADPH-generating system by LC-MS/MS analysis; assay type: ADME, Microsome
# [7] = biological target: Dual specificity protein kinase CLK1 (Mus musculus) (UniProt P22518); assay: Inhibition of Clk1 in mouse BNL CL.2 cells assessed as redistribution of serine/arginine (SR) proteins from nucleoplasmic (active form) to nuclear speckles (storage form) at 10 uM incubated for 24 hrs by immunofluorescence assay; assay type: cell-based
# Chain of Dual specificity protein kinase CLK1 (Mus musculus) (P22518 whole entry, looked up): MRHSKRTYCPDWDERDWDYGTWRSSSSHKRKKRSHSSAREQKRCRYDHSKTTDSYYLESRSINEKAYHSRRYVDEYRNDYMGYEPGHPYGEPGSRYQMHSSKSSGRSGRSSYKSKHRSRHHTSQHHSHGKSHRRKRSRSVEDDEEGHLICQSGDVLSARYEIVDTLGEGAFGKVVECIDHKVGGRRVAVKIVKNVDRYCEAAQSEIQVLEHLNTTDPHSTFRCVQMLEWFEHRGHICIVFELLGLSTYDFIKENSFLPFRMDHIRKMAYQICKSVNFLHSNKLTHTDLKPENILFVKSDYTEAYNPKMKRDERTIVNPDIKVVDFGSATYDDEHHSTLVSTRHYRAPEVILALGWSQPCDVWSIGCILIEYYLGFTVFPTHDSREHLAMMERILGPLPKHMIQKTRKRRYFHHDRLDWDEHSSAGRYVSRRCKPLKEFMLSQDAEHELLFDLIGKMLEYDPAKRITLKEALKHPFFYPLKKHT
Activity [1],IC50 [2],IC50 [3],Selectivity Index (Homo sapiens),Activity [4],CLH [5],half-life at 10 µM [6],inhibition [7],Compound
18%,45 nM,689 nM,15.3,96%,–,–,–,FC(F)(F)c1cccc(CNc2cnc3[nH]cc(-c4cccnc4)c3c2)c1
9%,16 nM,1320 nM,82.7,81%,88.7 mL/min/g,32.1 min,–,COc1cncc(-c2c[nH]c3ncc(NCc4cc(F)cc(F)c4)cc23)c1
74%,324 nM,2460 nM,–,99%,–,–,–,Fc1cc(F)cc(CNc2cnc3[nH]cc(C4=CCCCC4)c3c2)c1
105%,569 nM,465 nM,0.8,91%,–,–,–,COc1ccc(-c2cnc3ccc(NCc4cc(F)cc(F)c4)cn23)cc1
70%,510 nM,1350 nM,–,86%,–,–,–,Fc1ccc(/C=N/c2cnc3[nH]cc(-c4cncc(F)c4)c3c2)cc1
4%,15 nM,475 nM,31.6,98%,–,–,–,Fc1cccc(CNc2cnc3[nH]cc(-c4cccnc4)c3c2)c1
20%,66 nM,3990 nM,60.5,92%,< 12 mL/min/g,> 120 min,–,COc1cc(Cl)ccc1C(=O)Nc1cnc2[nH]cc(-c3cncc(F)c3)c2c1
80%,458 nM,765 nM,1.7,108%,–,–,–,Fc1cc(F)cc(CNc2cnc3[nH]cc(-c4ccc(C(F)(F)F)cc4)c3c2)c1
30%,31 nM,2250 nM,72.6,90%,–,–,–,O=C(Nc1cnc2[nH]cc(-c3cccnc3)c2c1)c1ccc(F)cc1
85%,–,–,–,111%,–,–,–,CCCc1ccc(-c2c[nH]c3ncc(NCc4cc(F)cc(F)c4)cc23)cc1
99%,–,–,–,126%,–,–,–,COc1ccc(-c2cnc3ccc(NC4CCCC4)cn23)cc1
26%,75 nM,590 nM,7.8,102%,–,–,–,Nc1ncc(-c2c[nH]c3ncc(NCc4cc(F)cc(F)c4)cc23)cn1
88%,1870 nM,5680 nM,–,106%,–,–,–,O=C(Nc1cc(C(F)(F)F)cc(C(F)(F)F)c1)Nc1cnc2[nH]cc(-c3cncc(F)c3)c2c1
6%,15 nM,2330 nM,156,88%,76.8 mL/min/g,20.3 min,–,COc1cncc(-c2c[nH]c3ncc(NCc4ccc(F)cc4)cc23)c1
16%,30 nM,1900 nM,63.2,85%,65.4 mL/min/g,21.2 min,–,COc1cncc(-c2c[nH]c3ncc(NCc4ccc(N5CCOCC5)cc4)cc23)c1
13%,24 nM,2060 nM,85.8,81%,13.8 mL/min/g,115 min,–,COc1cncc(-c2c[nH]c3ncc(NC(=O)c4ccc(F)cc4)cc23)c1
61%,454 nM,653 nM,–,74%,–,–,–,Fc1cccc(/C=N/c2cnc3[nH]cc(-c4cncc(F)c4)c3c2)c1
65%,252 nM,2210 nM,–,108%,–,–,–,Fc1cc(F)cc(CNc2cnc3[nH]cc(-c4cc5ccccc5s4)c3c2)c1
89%,762 nM,> 5000 nM,–,105%,–,–,–,NC(=O)c1cccc(-c2c[nH]c3ncc(NCc4cc(F)cc(F)c4)cc23)c1
28%,46 nM,1700 nM,36.9,83%,–,–,–,c1cncc(-c2c[nH]c3ncc(NCc4ccc(N5CCOCC5)cc4)cc23)c1

Activity [1],IC50 [2],IC50 [3],Selectivity Index (Homo sapiens),Activity [4],CLH [5],half-life at 10 µM [6],inhibition [7],Compound
28%,66 nM,389 nM,5.9,88%,–,–,–,Nc1cccc(-c2c[nH]c3ncc(NCc4cc(F)cc(F)c4)cc23)c1
27%,45 nM,988 nM,21.9,103%,–,–,–,CC(C)(C)c1cccc(CNc2cnc3[nH]cc(-c4cccnc4)c3c2)c1
64%,389 nM,3010 nM,–,88%,–,–,–,O=C(Nc1cnc2[nH]cc(-c3cncc(F)c3)c2c1)c1ccco1
17%,25 nM,2040 nM,81.4,84%,–,–,–,COc1cc(Cl)ccc1C(=O)Nc1cnc2[nH]cc(-c3cccnc3)c2c1
103%,–,–,–,101%,–,–,–,COc1ccc(-c2cnc3ccc(NCc4ccc(N(C)C)cc4)cn23)cc1
91%,–,–,–,110%,–,–,–,COc1ccc(-c2cnc3ccc(NCc4ccc(F)cc4)cn23)cc1
19%,42 nM,5970 nM,142,99%,79.2 mL/min/g,17.5 min,–,CN1CCN(c2ccc(CNc3cnc4[nH]cc(-c5cncc(F)c5)c4c3)cc2)CC1
12%,18 nM,288 nM,16,91%,–,–,–,Fc1cc(F)cc(CNc2cnc3[nH]cc(-c4cccnc4)c3c2)c1
70%,667 nM,3660 nM,–,94%,–,–,–,O=S(=O)(Nc1cnc2[nH]cc(-c3cncc(F)c3)c2c1)c1ccc(F)cc1
80%,476 nM,> 5000 nM,–,106%,–,–,–,Fc1cc(F)cc(CNc2cnc3[nH]cc(-c4ccc5ccccc5c4)c3c2)c1
9%,13 nM,1750 nM,135,85%,–,–,–,CN1CCN(c2ccc(CNc3cnc4[nH]cc(-c5cccnc5)c4c3)cc2)CC1
–,34 nM,–,1.3,–,–,–,Active,Nc1ccc(-c2cnc3[nH]cc(-c4ccc(O)cc4)c3c2)cc1
16%,23 nM,2390 nM,117,108%,–,–,–,CC(C)c1cccc(CNc2cnc3[nH]cc(-c4cccnc4)c3c2)c1
45%,89 nM,3650 nM,41,87%,–,–,–,O=C(Nc1cnc2[nH]cc(-c3cccnc3)c2c1)c1ccc(C(F)(F)F)c(F)c1
33%,70 nM,1560 nM,22.4,98%,–,–,–,CCN(CC)c1ccc(CNc2cnc3[nH]cc(-c4cccnc4)c3c2)cc1
3%,15 nM,97 nM,6.5,40%,–,–,–,COc1ccc(-c2c[nH]c3ncc(NCc4cc(F)cc(F)c4)cc23)cc1
36%,89 nM,561 nM,6.3,101%,–,–,–,Nc1ccc(-c2c[nH]c3ncc(NCc4cc(F)cc(F)c4)cc23)cc1
2%,17 nM,2030 nM,119,89%,80.4 mL/min/g,19.5 min,–,COc1cncc(-c2c[nH]c3ncc(NCc4cccc(F)c4)cc23)c1
37%,64 nM,2900 nM,45.3,83%,< 12 mL/min/g,> 120 min,–,O=C(Nc1cnc2[nH]cc(-c3cncc(F)c3)c2c1)c1ccc(F)cc1
8%,5 nM,3500 nM,700,95%,15 mL/min/g,101 min,–,COc1cncc(-c2c[nH]c3ncc(NC(=O)c4ccc(Cl)cc4OC)cc23)c1
